According to PMC6112376, “Comprehensive Analyses and Prioritization of Tox21 10K Chemicals Affecting Mitochondrial Function by in-Depth Mechanistic Studies” (Environmental Health Perspectives, 2018):
Where two headings read alike, the source gives them in different places.

Key:
[1] = test system: Caenorhabditis elegans strain PE255; assay: In vivo C. elegans ATP status assay
HepG2 cells [2] = details: cited from earlier work
[3] = test system: mitochondrial respiratory chain complex III; format: biochemical, rat
HepG2 cells [4] = test system: HepG2 cells
[5] = target: T1, mitochondrial respiratory chain complex II (Rattus norvegicus, UniProt P21913+Q641Z9+Q6PCT8+Q920L2); assay: Respiratory chain complex II activity; format: biochemical; details: tested up to 100μM
T1 construct: Submitochondrial particles were prepared by subjecting the intact rat mitochondria, isolated as described above, to three successive freeze–thaw cycles; from tissue; host or cells: rat liver mitochondria (submitochondrial particles)

[6] = test system: mitochondrial respiratory chain complex I; format: biochemical, rat; details: at 20μM
[7] = test system: Caenorhabditis elegans (Bristol N2); details: in vivo
HepG2 cells [8] = assay: Oxygen consumption, Seahorse XF24 analyzer; format: cell-based, human
[9] = test system: isolated rat liver mitochondria; assay: Oxygen consumption, Clark-type oxygen electrode; format: biochemical
hNSC = assay: MMP assay in human neural stem cells (hNSC); format: cell-based
HepG2 cells [10] = assay: ROS-Glo hydrogen peroxide (ROS) assay; format: cell-based, human
[11] = test system: p53 (p53-bla HCT-116 cells); assay: p53 β-lactamase reporter gene assay; format: cell-based, human
HepG2 cells [12] = assay: Intracellular ATP content (cell viability) assay; format: cell-based, human
[13] = test system: HeLa cells expressing YFP-Parkin; assay: Parkin translocation assay; format: cell-based, human
[14] = test system: mitochondrial respiratory chain complex IV; format: biochemical, rat
rat primary hepatocytes [15] = assay: MMP assay in rat primary hepatocytes
[16] = test system: Caenorhabditis elegans (Bristol N2); assay: C. elegans larval development and growth assay
[17] = test system: mitochondrial respiratory chain complex V; format: biochemical, rat
[18] = test system: Nrf2/ARE (ARE-bla HepG2 cells); assay: ARE β-lactamase reporter gene assay; format: cell-based, human
rat primary hepatocytes [19] = test system: rat primary hepatocytes
[20] = test system: Caenorhabditis elegans strain PE255; details: in vivo

T1 sequence (Q920L2 35-656): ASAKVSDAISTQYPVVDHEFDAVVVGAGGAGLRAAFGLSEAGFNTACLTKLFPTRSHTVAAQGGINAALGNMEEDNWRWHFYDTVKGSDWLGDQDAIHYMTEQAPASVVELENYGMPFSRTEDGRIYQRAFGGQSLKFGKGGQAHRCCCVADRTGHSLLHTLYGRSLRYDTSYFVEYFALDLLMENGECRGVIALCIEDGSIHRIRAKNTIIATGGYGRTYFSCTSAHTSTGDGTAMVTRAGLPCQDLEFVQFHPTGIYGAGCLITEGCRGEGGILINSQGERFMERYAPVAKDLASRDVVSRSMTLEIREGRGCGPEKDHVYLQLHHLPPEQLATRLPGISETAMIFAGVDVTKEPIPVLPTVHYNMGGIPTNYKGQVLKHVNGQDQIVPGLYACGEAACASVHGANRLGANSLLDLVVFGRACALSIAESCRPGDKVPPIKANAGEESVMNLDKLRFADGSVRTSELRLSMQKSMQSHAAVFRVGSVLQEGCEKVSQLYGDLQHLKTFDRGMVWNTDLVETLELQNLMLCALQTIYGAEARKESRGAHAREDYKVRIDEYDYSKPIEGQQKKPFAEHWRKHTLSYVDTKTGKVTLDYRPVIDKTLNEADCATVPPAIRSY
T1 sequence (P21913 31-282): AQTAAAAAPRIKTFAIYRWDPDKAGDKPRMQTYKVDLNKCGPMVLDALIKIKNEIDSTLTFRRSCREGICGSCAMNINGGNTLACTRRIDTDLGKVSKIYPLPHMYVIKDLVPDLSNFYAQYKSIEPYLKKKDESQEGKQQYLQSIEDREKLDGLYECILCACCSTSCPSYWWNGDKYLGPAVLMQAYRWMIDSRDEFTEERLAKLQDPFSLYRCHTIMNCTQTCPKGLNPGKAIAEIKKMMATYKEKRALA
T1 sequence (Q641Z9 1-169): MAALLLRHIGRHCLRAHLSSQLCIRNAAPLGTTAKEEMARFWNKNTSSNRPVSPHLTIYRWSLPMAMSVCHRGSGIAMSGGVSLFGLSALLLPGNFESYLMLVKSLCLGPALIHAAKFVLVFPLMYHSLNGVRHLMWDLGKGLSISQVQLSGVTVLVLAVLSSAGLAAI
T1 sequence (Q6PCT8 57-159): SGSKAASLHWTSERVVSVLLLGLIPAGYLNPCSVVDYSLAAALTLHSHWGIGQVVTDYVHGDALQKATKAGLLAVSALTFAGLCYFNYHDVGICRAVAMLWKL

CO/C=C(/C(=O)OC)c1ccccc1COc1cccc(C(F)(F)F)n1 [Picoxystrobin]
LUM: mean difference in luminescence (ATP content) relative to plate controls ([1]; 0.5 µM): -0.02313
LUM: mean difference in luminescence (ATP content) relative to plate controls ([1]; 1 µM): -0.1059
LUM: mean difference in luminescence (ATP content) relative to plate controls ([1]; 5 µM): 0.5517
LUM: mean difference in luminescence (ATP content) relative to plate controls ([1]; 10 µM): 0.8678
LUM: mean difference in luminescence (ATP content) relative to plate controls ([1]; 25 µM): 0.0568
LUM: mean difference in luminescence (ATP content) relative to plate controls ([1]; 50 µM): 0.3665
LUM: mean difference in luminescence (ATP content) relative to plate controls ([1]; 75 µM): 0.468
LUM: mean difference in luminescence (ATP content) relative to plate controls ([1]; 100 µM): 0.877
effect on ATP content (in words) ([1]; 0.5–100μM): inhibited
LEC LUM: lowest effect concentration for luminescence, a measure of nematode ATP content ([1]; in vivo): 5 µM
MMP assays efficacy (%) qHTS-HepG2 (HepG2 cells [2]): -116±5%
IC50 (HepG2 cells [2]; read-out: MMP assays IC50 (µM), qHTS-HepG2): 9.31 ± 2.67 µM
inhibitory effect on Complex III at (concentration) [3]: 4 µM
Complex III % inhibition ([3]; at 4μM): 53.3±3.26 at 4μM %
HepG2 (efficacy) Galactose (MMP) (HepG2 cells [4]): 24.4±4.56 ( −119±6.45 ) %
HepG2 (efficacy) Glucose (MMP) (HepG2 cells [4]): 13.6±14.5 ( −62.9±25.1 ) %
MMP assays efficacy (%) HepG2 (HepG2 cells [4]): -122%
IC50 (HepG2 cells [4]; read-out: HepG2 IC50 Galactose (MMP)): 24.4 µM
IC50 (HepG2 cells [4]; read-out: HepG2 IC50 Glucose (MMP)): 13.6 µM
IC50 (HepG2 cells [4]; read-out: MMP assays IC50 (µM) HepG2): 1 µM
Complex II % inhibition (activity call) [5]: Inactive
Complex I % inhibition [6]: 13.2±3.23 at 20μM %
LEC (lowest effect concentration), larval growth assay [7]: < 10 µM
Activity in oxygen consumption (HepG2 cells [8]): Inhibitor
Potential Mechanism [9]: Inhibitor
effect on mitochondrial respiration (in words) [9]: effects similar to antimycin A
I-ADP, % of control (O2 consumption rate) ([9]; 0.0064 µM): 94 (43.2) % of control
I-sub, % of control (O2 consumption rate) ([9]; 0.0064 µM): 104 (11.7) % of control
II-ADP, % of control (O2 consumption rate) ([9]; 0.0064 µM): 81 (61.2) % of control
II-sub, % of control (O2 consumption rate) ([9]; 0.0064 µM): 101 (20.8) % of control
I-ADP, % of control (O2 consumption rate) ([9]; 0.032 µM): 84 (38.8) % of control
I-sub, % of control (O2 consumption rate) ([9]; 0.032 µM): 103 (11.5) % of control
II-ADP, % of control (O2 consumption rate) ([9]; 0.032 µM): 36 (27.2) % of control
II-sub, % of control (O2 consumption rate) ([9]; 0.032 µM): 74 (15.3) % of control
I-ADP, % of control (O2 consumption rate) ([9]; 0.16 µM): 50 (22.8) % of control
I-sub, % of control (O2 consumption rate) ([9]; 0.16 µM): 90 (10.1) % of control
II-ADP, % of control (O2 consumption rate) ([9]; 0.16 µM): 11 (7.9) % of control
II-sub, % of control (O2 consumption rate) ([9]; 0.16 µM): 41 (8.5) % of control
I-ADP, % of control (O2 consumption rate) ([9]; 0.8 µM): 16 (7.2) % of control
I-sub, % of control (O2 consumption rate) ([9]; 0.8 µM): 59 (6.6) % of control
II-ADP, % of control (O2 consumption rate) ([9]; 0.8 µM): 9 (7.1) % of control
II-sub, % of control (O2 consumption rate) ([9]; 0.8 µM): 33 (6.9) % of control
I-ADP, % of control (O2 consumption rate) ([9]; 4 µM): 9 (4.0) % of control
I-sub, % of control (O2 consumption rate) ([9]; 4 µM): 39 (4.4) % of control
II-ADP, % of control (O2 consumption rate) ([9]; 4 µM): 9 (6.6) % of control
II-sub, % of control (O2 consumption rate) ([9]; 4 µM): 33 (6.9) % of control
I-ADP, % of control (O2 consumption rate) ([9]; 20 µM): 9 (4.1) % of control
I-sub, % of control (O2 consumption rate) ([9]; 20 µM): 34 (3.8) % of control
II-ADP, % of control (O2 consumption rate) ([9]; 20 µM): 10 (7.4) % of control
II-sub, % of control (O2 consumption rate) ([9]; 20 µM): 36 (7.4) % of control
I-ADP, % of control (O2 consumption rate) ([9]; 100 µM): 8 (3.7) % of control
I-sub, % of control (O2 consumption rate) ([9]; 100 µM): 25 (3.9) % of control
II-ADP, % of control (O2 consumption rate) ([9]; 100 µM): 7 (4.7) % of control
II-sub, % of control (O2 consumption rate) ([9]; 100 µM): 16 (4.9) % of control
hNSC (efficacy) (MMP) (hNSC): 38.2±0.00 ( −92.8±16.3 ) %
IC50 (hNSC; read-out: hNSC IC50 (MMP)): 38.2 µM
ROS (HepG2) (efficacy) (HepG2 cells [10]): 15.4±5.47 ( 36.2±2.46 ) %
EC50 (HepG2 cells [10]; read-out: ROS (HepG2) EC50): 15.4 µM
EC50 ([11]; 16 h incubation, mean±SD of three experiments): 6.68 ± 2.21 µM
p53 (HCT-116) (efficacy) ([11]; % of positive control): 40.2±19.6%
ATP (HepG2, galactose) (efficacy) (HepG2 cells [12]): 3.08±0.64 ( −76.4±37.7 ) %
ATP (HepG2, glucose) (efficacy) (HepG2 cells [12]): 3.61±1.57 ( −76.4±30.3 ) %
IC50 (HepG2 cells [12]; read-out: ATP (HepG2, galactose) IC50): 3.08 µM
IC50 (HepG2 cells [12]; read-out: ATP (HepG2, glucose) IC50): 3.61 µM
Parkin recruitment [13]: Inactive
Parkin translocation into mitochondria (in words) ([13]; 3 h): did not induce Parkin translocation
Complex IV % inhibition (activity call) [14]: Inactive
IC50 (rat primary hepatocytes [15]; read-out: MMP assays IC50 (µM) Rat Hepatocytes): 14.6 ± 4.7 µM
IC50 (rat primary hepatocytes [15]; read-out: Rat hepatocytes IC50 (MMP)): 16.1 µM
EXT: mean difference in nematode size relative to plate controls ([16]; 0.5 µM): 0.05428
EXT: mean difference in nematode size relative to plate controls ([16]; 1 µM): 0.004345
EXT: mean difference in nematode size relative to plate controls ([16]; 5 µM): 1.265
EXT: mean difference in nematode size relative to plate controls ([16]; 10 µM): 1.24
EXT: mean difference in nematode size relative to plate controls ([16]; 25 µM): 0.112
EXT: mean difference in nematode size relative to plate controls ([16]; 50 µM): 0.8304
EXT: mean difference in nematode size relative to plate controls ([16]; 75 µM): 0.6508
EXT: mean difference in nematode size relative to plate controls ([16]; 100 µM): 1.291
effect on larval growth (in words) ([16]; 0.5–100μM): inhibited
LEC EXT: lowest effect concentration for extinction, a measure of nematode size ([16]; in vivo): 5 µM
Complex V % inhibition (activity call) [17]: Inactive
EC50 ([18]; 16 h incubation, mean±SD of three experiments, read-out: ARE (HepG2) EC50): 0.75 ± 0.49 µM
ARE (HepG2) (efficacy) ([18]; % of positive control): 57.6±7.85%
MMP assays efficacy (%) Rat Hepatocytes (rat primary hepatocytes [19]): -101+6%
Rat hepatocytes (efficacy) (MMP) (rat primary hepatocytes [19]): 16.1±7.03 ( −77.3±9.18 ) %
LEC (lowest effect concentration), ATP assay [20]: < 10 µM
